Key:
[1] = system: locomotor activity in mice; experiment: Inhibition of locomotor activity in mice; type: in vivo; conditions: Mus musculus, IP
Procedure: (§1) The compounds of Formula I are valuable dopaminergic agents. […] Thus, the compounds of Formula I were tested for their ability to inhibit locomotor activity in mice according to the assay described by J. R. McLean, et al, Pharmacology, Biochemistry and Behavior, Volume 8, pages 97-99 (1978); for their ability to inhibit [^3 H]-spiroperidol binding in a receptor assay described by D. Grigoriadis and P. Seeman, Journal of Neurochemistry, Volume 44, pages 1925-1935 (1985); and for their ability to inhibit dopamine synthesis in rats according to the protocol described by J. R. Walters and R. H. Roth, Naunyn-Schmiedeberg's Archives of Pharmacology, Volume 296, pages 5-14 (1976). The above test methods are incorporated herein by reference. The data in the table show the dopaminergic activity of representative compounds of Formula 1.

[2] = target: [^3 H]-spiroperidol binding (receptor assay); experiment: Inhibition of [^3 H]spiroperidol binding, receptor assay
Procedure: as §1

[3] = system: brain dopamine synthesis in rats; experiment: Reversal of brain dopamine synthesis in rats (inhibition of dopamine synthesis); type: in vivo; conditions: 10 mg/kg, IP
Procedure: as §1

SMILES | ED50 [1] [mg/kg] | IC50 [2] [µM] | % Reversal of Brain Dopamine Synthesis in Rats [3] [%]
C(#Cc1cccnc1)CCN1CCN(c2ccccn2)CC1 [Example 3, 1-(2-Pyridinyl)-4-[4-(3-pyridinyl)-3-butynyl]-piperazine] | 2.2 | 6.53 | 
O=[N+]([O-])c1ccc(C#CCCN2CCN(c3ccccn3)CC2)nc1 [Example 5, 1-[4-(5-Nitro-2-pyridinyl)-3-butynyl]-4-(2-pyridinyl)piperazine] | 14.1 | > 10 | 
C(#Cc1cnc2ccccc2c1)CCN1CCN(c2ccccn2)CC1 [Example 1, 3-[4-[4-(2-Pyridinyl)-1-piperazinyl]-1-butynyl]-quinoline] | 1.5 | 0.177 | 
O=[N+]([O-])c1ccc(C#CCCN2CCN(c3ccccn3)CC2)cc1 [Example 6, 1-[4-(4-Nitrophenyl)-3-butynyl]-4-(2-pyridinyl)-piperazine] | 7.7 | 2.5 | 
Nc1ccc(C#CCCN2CCN(c3ccccn3)CC2)nc1 [Example 7, 6-[4-[4-(2-Pyridinyl)-1-piperazinyl]-1-butynyl]-3-pyridinamine] | 0.35 | 1.9 | 24
Nc1ccc(C#CCCN2CCN(c3ccccn3)CC2)cc1 [Example 8, 4-[4-[4-(2-Pyridinyl)-1-piperazinyl]-1-butynyl]-benzenamine] | 0.56 | 0.611 | 63
Fc1ccc(N2CCN(CCC#Cc3cccnc3)CC2)cc1 [Example 2, 1-(4-Fluorophenyl)-4-[4-(3-pyridinyl)-3-butynyl]-piperazine] | 4.7 | 2.33 | 20

— US5270312A, “Substituted piperazines as central nervous system agents” (Warner-Lambert Company, priority 1991, dated 1993)
